Source: article PMC3108181 (Biochimica et biophysica acta, 2011)
Where “and” joins values, the source holds several entries; their conditions need not be identical. Equal entries are not always repeated. Entries after “also recorded” stand apart in the source; their conditions may differ. Where two headings read alike, the source gives them in different places. One block for each compound: values may come before it.

Assays:
[1] = tested on: Complex II/III: succinate:cytochrome C-oxidoreductase; test: Complex II/III activity in lysed rat brain mitochondria; format: biochemical
[2] = tested on: Complex IV: ferrocytochrome C oxidase:oxygen oxidoreductase; test: Complex IV activity in lysed rat brain mitochondria; format: biochemical; conditions: for Effect on complex IV activity: lysed rat brain mitochondria, 15 min pre-incubation at room temperature; for Prevention of the complex IV inhibition observed with DAH: (2U) SOD plus (2U) Cat, 10 uM pargyline and 10 uM clorgyline, DTT 50 uM, data not shown
[3] = biological target: Complex II: succinate:ubiquinone oxidoreductase (Rattus norvegicus, UniProt P21913+Q641Z9+Q6PCT8+Q920L2); test: Complex II activity; format: biochemical; conditions: for Effect on complex II activity: lysed rat brain mitochondria, 15 min pre-incubation at room temperature, malonate sensitive activity
[4] = tested on: Complex I/III: NADH:cytochrome C-oxidoreductase; test: Complex I/III activity in lysed rat brain mitochondria; format: biochemical
complex I = conditions: cited from earlier work
complex IV = conditions: cited from earlier work; for Inhibition of complex IV: 400 uM DA, 2 hrs of incubation
[5] = tested on: Complex I: NADH:ubiquinone oxidoreductase; test: Complex I activity in lysed rat brain mitochondria; format: biochemical; conditions: for Effect on complex I activity: lysed rat brain mitochondria, 30 min pre-incubation (same with no pre-incubation)
[6] = biological target: Complex III: ubiquinol: ferricytochrome C oxidoreductase; test: Complex III activity in lysed rat brain mitochondria; format: biochemical; conditions: for Inhibition of complex III activity: myxothiazol (60uM) and antimycin A (0.002mg/ml) together, parallel control
[7] = tested on: NADH-Oxidase (complexes I, III and IV); test: NADH-oxidase activity in lysed rat brain mitochondria; format: biochemical
[8] = read-out: Inhibition of complex II activity

Chain of Complex II: succinate:ubiquinone oxidoreductase (Q920L2 35-656): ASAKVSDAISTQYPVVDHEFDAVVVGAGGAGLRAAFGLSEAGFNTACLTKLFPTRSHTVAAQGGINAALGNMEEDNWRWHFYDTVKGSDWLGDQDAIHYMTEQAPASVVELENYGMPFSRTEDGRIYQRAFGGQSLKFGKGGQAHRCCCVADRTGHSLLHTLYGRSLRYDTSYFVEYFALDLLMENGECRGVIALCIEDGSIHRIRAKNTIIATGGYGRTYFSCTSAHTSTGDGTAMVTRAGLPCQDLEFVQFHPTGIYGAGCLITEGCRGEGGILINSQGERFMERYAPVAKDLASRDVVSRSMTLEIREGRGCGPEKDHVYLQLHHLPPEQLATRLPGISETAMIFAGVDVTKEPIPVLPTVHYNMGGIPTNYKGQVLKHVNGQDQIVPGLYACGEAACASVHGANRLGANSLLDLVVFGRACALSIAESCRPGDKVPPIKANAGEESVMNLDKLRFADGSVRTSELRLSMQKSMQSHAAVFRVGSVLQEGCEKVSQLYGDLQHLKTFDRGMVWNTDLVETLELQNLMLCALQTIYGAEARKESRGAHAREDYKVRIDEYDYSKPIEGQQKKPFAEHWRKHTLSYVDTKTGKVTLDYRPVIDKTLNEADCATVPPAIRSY
Chain of Complex II: succinate:ubiquinone oxidoreductase (P21913 31-282): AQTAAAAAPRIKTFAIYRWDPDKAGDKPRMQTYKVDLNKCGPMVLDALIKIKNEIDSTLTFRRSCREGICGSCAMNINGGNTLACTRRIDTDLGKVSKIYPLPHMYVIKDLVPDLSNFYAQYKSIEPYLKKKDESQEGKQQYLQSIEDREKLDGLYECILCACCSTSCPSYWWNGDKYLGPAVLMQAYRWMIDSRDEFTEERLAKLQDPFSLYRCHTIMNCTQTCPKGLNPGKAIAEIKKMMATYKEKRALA
Chain of Complex II: succinate:ubiquinone oxidoreductase (Q641Z9 1-169): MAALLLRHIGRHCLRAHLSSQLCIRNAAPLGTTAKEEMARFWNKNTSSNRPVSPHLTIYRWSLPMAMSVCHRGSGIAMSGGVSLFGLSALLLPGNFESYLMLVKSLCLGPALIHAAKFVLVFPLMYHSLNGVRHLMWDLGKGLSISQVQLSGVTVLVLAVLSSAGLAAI
Chain of Complex II: succinate:ubiquinone oxidoreductase (Q6PCT8 57-159): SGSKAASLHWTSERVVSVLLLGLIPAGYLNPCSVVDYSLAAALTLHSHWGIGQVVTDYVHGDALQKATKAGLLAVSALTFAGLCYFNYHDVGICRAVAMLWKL

Compound: NCCc1ccc(O)c(O)c1 [DAH, dopamine]
Effect on complex II/III activity [1]: inhibited complex II/III activity to a similar extent as was observed with complex II alone
Complex IV activity, % of control ([2]; 1 mM DAH, concluded to be an artifact (back reaction with oxidized cytochrome C)): 61 % of control
Effect on complex IV activity [2]: Inhibited at 1mM due to artifactual competing back reaction between oxidized cytochrome C and reduced dopamine
Effect on complex II activity [3]: Significantly inhibited at 500 uM and 1mM
inhibition at 500 µM [3, 8]: 32.7 ± 2%
inhibition at 1000 µM [3, 8]: 41.9 ± 5.5%
Complex I/III activity, mean % of control ([4]; 200 uM DA plus tyrosinase (25U) alone (DAQ), ± sem): 7 % of control
IC50 (complex I; read-out: IC50 for inhibition of complex I): 8 to 12 µM and 8.12 µM
Inhibition of complex IV (complex IV; ref 29): 62.8%
Inhibition of complex IV (complex IV; ref 30): 57%
Effect on complex IV (complex IV; DA up to 1mM, 1 min incubation): no inhibition
Effect on complex I activity [5]: not affected; also recorded: No effect at 1mM

Compound: O=C(O)Cc1ccc(O)c(O)c1 [DOPAC-H, 3,4-dihydroxyphenylacetic acid]
Effect on complex II/III activity ([1]; lysed rat brain mitochondria, 15 min exposure at room temperature, inhibitor corrected rates): did not significantly inhibit
Effect on complex IV activity [2]: not affected; also recorded: No effect at 1mM
Effect on complex II activity [3]: not significantly affected; also recorded: not attenuated; also recorded: No effect at 1mM
Effect on complex IV activity (complex IV; 400 uM DOPAC, rat brain mitochondria, 2 hr pre-incubation): only marginal effects
Effect on complex I activity [5]: not affected; also recorded: No effect at 1mM

Compound: O=C(O)CC1=CC(=O)C(=O)C=C1 [DOPAC-Q]
IC50 ([6]; read-out: IC50 for inhibition of complex III activity, 15 min pre-incubation at room temperature, mean ± SEM): 110 µM
Effect on complex IV activity [2]: did not inhibit; also recorded: No effect up to 400 uM
Effect on complex II activity [3]: did not attenuate; also recorded: No effect up to 400 uM

Compound: O[C@@H](CS)[C@@H](O)CS [DTT, dithioreitol, reference compound]
Prevention of the complex IV inhibition observed with DAH ([2]; 1 mM DAH): not prevented

Compound: CCCCCC[C@H]1C(=O)O[C@H](C)[C@H](NC(=O)c2cccc(NC=O)c2O)C(=O)O[C@@H](C)[C@@H]1OC(=O)CC(C)C [antimycin A]
Inhibition of complex III activity [6]: ≥ 95%

Prevention of the complex IV inhibition observed with DAH ([2]; 1 mM DAH): not prevented
Compound: C#CCN(C)CCCOc1ccc(Cl)cc1Cl [clorgyline, reference compound]

Compound: CC(=O)N(O)CCCCCNC(=O)CCC(=O)N(O)CCCCCNC(=O)CCC(=O)N(O)CCCCCN [desferoxamine, reference compound]
Attenuation of DA mediated inhibition of complex I activity (complex I): partially attenuated

Inhibition of complex II activity ([3]; malonate 10mM, parallel control): 90–95%
Compound: O=C(O)CC(=O)O [malonate, reference compound]

Compound: CO/C(=C/C(N)=O)[C@H](C)[C@H](/C=C/c1csc(-c2csc([C@@H](C)/C=C/C=C/C(C)C)n2)n1)OC [myxothiazol]
Inhibition of complex III activity [6]: ≥ 95%

Prevention of the complex IV inhibition observed with DAH ([2]; 1 mM DAH): not prevented
Compound: C#CCN(C)Cc1ccccc1 [pargyline, reference compound]

Compound: C=C(C)[C@H]1Cc2c(ccc3c2O[C@@H]2COc4cc(OC)c(OC)cc4[C@@H]2C3=O)O1 [rotenone, reference compound]
Inhibition of complex I/III activity [4]: ≥ 95%
Inhibition of NADH-oxidase activity [7]: ≥ 90%

Prevention of the complex IV inhibition observed with DAH ([2]; 1 mM DAH): not prevented
Compound: catalase
Prevention of DAQ mediated inhibition of complex I ([5]; 50 uM DAQ plus SOD [2U] and catalase [1U] together): did not prevent
